Laboratory results: patent US11345678B2, “Benzopyrazole compound used as RHO kinase inhibitor” (MEDSHINE DISCOVERY INC., priority 2018, dated 2022)

Columns and labels:
ROCK1 = ROCK1 (Homo sapiens (Human), UniProt Q13464); assay: In vitro inhibitory activity against ROCK protein kinase (33P-ATP filter-binding), ROCK1; format: biochemical; settings: 1 nM ROCK protein kinase, 20 μM Long S6 Kinase substrate peptide
Experimental: (§1) 1. In Vitro Evaluation of the Inhibitory Activity Against ROCK Protein Kinase
(§2) Experimental purpose: to detect the inhibitory IC50 value of the compound against ROCK protein kinase.
(§3) Assay buffer solution: 20 mM 4-hydroxyethylpiperazine ethanesulfonic acid (pH 7.5), 10 mM magnesium chloride, 1 mM ethylene glycol-bis-(2-aminoethyl)tetraacetic acid, 0.02% polyethylene glycol monododecyl ether, 0.02 mg/mL bovine serum albumin, 0.1 mM sodium vanadate, 2 mM dithiothreitol, 1% DMSO.
(§4) The freshly prepared buffer solution was added to ROCK protein kinase substrate (Long S6 Kinase substrate peptide), at a concentration of 20 μM, then 1 nM ROCK protein kinase was added thereto and stirred evenly. Echo550 was used to add a series of DMSO dilutions containing the test compound (starting from 10 μM, serially diluted by 3 times), the solution was pre-incubated at room temperature for 20 minutes, then ^33P-ATP (radiation intensity 10 μCi/μL) was added to initiate the reaction, and the reaction was performed at room temperature for two hours. Then the solution was filtered by P81 ion exchange paper (Whatman #3698-915) and washed with 0.75% phosphoric acid. The radiation intensity was determined by Filter-Binding method.
(§5) The protein kinase inhibitory activity of the compound was expressed as the remaining protein kinase activity relative to the blank substrate (simply DMSO). Prism software package (GraphPad Software, San Diego Calif., USA) was used to calculate IC50 value and the curve.

ROCK2 = ROCK2 (Homo sapiens (Human), UniProt O75116); assay: In vitro inhibitory activity against ROCK protein kinase (33P-ATP filter-binding), ROCK2; format: biochemical; settings: 1 nM ROCK protein kinase, 20 μM Long S6 Kinase substrate peptide
Sequence of ROCK2 (O75116 whole entry): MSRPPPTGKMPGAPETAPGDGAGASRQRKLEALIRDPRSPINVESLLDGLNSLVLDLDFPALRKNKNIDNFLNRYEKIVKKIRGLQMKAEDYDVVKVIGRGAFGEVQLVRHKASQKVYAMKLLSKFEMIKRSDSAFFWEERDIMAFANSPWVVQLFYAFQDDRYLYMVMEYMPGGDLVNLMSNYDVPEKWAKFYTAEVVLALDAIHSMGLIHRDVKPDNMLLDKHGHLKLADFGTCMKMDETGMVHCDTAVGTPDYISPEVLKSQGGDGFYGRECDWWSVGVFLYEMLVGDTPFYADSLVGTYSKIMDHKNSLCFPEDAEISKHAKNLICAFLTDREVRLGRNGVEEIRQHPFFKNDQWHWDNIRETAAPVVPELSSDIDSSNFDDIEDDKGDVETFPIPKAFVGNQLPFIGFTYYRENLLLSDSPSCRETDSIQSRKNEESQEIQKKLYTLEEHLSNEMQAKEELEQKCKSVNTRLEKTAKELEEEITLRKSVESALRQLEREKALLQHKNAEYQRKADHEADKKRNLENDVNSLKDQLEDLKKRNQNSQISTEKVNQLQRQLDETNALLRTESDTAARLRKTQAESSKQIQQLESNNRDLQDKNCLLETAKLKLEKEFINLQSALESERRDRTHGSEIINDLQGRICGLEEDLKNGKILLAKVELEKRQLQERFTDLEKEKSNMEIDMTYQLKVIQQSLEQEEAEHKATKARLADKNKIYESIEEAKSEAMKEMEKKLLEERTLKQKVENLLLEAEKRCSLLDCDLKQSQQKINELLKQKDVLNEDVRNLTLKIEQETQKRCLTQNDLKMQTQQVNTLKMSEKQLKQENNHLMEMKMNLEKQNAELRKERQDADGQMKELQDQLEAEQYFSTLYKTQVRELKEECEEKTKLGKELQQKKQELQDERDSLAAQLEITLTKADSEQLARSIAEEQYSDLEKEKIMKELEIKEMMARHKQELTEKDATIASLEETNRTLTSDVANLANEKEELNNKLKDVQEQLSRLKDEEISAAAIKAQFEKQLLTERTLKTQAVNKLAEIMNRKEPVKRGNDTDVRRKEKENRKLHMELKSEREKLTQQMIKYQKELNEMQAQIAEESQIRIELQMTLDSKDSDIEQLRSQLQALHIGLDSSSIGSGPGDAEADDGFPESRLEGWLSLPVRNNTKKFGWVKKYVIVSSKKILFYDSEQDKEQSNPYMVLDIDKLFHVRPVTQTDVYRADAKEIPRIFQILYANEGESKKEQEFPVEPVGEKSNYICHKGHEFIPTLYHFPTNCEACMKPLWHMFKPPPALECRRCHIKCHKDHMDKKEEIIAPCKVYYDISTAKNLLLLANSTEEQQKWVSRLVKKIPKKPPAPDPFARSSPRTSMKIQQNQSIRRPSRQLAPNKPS
Experimental: as §1, §2, §3, §4, §5

[1] = Pharmacokinetics in SD rats (intravenous injection and oral administration); format: in vivo; settings: rat, plasma, male SD rats; for clearance / half-life / Vd: intravenous 1 mg/kg; for clearance: read-out: Clearance rate CL; for half-life: read-out: Half-life T1/2 (IV) (converted); for Vd: read-out: Tissue distribution Vdss; for bioavailability: oral 2 mg/kg vs intravenous 1 mg/kg, read-out: Bioavailability F; for AUC(0-t) / Cmax: oral 2 mg/kg; for AUC(0-t): read-out: Area under the drug-time curve AUC0-last PO; for Cmax: read-out: Peak concentration Cmax
Experimental: 4. Evaluation of the Pharmacokinetics of the Compound
Experimental purpose: to study the pharmacokinetics of the compounds in SD rats in vivo
SD rat (male, 7 to 10 weeks old, WTLH/SLAC)
The rodent pharmacokinetic characteristics of the compounds after intravenous injection and oral administration were tested by standard protocols. In the experiment, the candidate compounds were formulated into 0.2 mg/mL clear solutions and were given to the rats by a single intravenous injection and oral administration. The vehicles of the intravenous injection and oral administration were both 5% DMSO/95% (10% hydroxypropyl P-cyclodextrin) aqueous solution. This project used four male SD rats and two of them were administered by intravenous injection at a dosage of 1 mg/kg, plasma samples were collected at 0.0833, 0.25, 0.5, 1, 2, 4, 6, 8, and 24 hours after administration, the other two rats were administered orally and intragastrically at a dosage of 2 mg/kg, plasma samples were collected at 0.25, 0.5, 1, 2, 3, 4, 6, 8, 24 hours after administration. The whole blood samples were collected within 24 hours and centrifuged at 3000 g for 15 minutes, and the supernatants were separated to give plasma samples. The plasma samples were added with an acetonitrile solution containing internal standard to precipitate protein, mixed thoroughly and centrifuged, and the supernatants were taken for injection. The blood drug concentration was quantitatively analyzed by LC-MS/MS analysis method, and the pharmacokinetic parameters (such as peak concentration (Cmax), clearance rate (CL), half-life (T1/2), […] (Vdss), area under the drug-time curve (AUC0-last), and bioavailability (F), etc.) were calculated.

Sequence of ROCK1 (Q13464 whole entry): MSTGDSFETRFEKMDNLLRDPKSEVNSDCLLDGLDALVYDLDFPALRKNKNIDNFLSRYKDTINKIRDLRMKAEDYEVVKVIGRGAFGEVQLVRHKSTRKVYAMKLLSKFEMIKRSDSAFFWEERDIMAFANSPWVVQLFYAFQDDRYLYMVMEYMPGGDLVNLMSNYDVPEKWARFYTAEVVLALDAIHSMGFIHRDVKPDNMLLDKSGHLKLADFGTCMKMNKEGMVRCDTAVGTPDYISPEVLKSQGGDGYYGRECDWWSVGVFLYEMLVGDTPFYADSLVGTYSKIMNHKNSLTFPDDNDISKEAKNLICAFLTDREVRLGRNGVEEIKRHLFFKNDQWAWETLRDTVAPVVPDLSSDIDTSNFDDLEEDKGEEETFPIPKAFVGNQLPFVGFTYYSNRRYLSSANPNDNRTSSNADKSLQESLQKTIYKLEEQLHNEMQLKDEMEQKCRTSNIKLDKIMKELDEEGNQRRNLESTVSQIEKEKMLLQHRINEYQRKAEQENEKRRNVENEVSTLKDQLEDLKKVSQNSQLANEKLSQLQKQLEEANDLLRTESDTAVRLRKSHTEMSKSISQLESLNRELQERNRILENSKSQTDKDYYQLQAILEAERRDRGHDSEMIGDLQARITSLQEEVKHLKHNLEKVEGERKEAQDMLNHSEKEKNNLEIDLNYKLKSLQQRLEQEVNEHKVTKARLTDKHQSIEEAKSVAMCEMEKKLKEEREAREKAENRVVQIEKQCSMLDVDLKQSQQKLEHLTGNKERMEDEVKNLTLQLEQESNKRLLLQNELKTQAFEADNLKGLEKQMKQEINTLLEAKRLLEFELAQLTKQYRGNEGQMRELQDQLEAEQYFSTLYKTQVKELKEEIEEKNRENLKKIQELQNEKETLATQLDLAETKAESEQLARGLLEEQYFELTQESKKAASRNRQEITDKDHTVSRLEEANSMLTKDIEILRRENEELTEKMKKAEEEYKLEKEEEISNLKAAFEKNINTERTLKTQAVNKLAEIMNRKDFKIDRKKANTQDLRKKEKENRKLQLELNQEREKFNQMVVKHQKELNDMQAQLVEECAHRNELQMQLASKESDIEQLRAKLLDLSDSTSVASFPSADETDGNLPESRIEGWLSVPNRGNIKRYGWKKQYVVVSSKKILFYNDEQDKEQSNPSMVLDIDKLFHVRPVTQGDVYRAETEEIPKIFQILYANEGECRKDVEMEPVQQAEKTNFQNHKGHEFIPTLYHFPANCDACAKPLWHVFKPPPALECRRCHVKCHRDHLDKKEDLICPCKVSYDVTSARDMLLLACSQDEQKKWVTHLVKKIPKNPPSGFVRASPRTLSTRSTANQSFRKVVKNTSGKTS

| Compound | IC50 (ROCK1) [nM] | IC50 (ROCK2) [nM] | clearance [1] [mL/min/kg] | half-life [1] [h] | Vd [1] [L/kg] | bioavailability [1] [%] | AUC(0-t) [1] [µM·h] | Cmax [1] [nM] |
| --- | --- | --- | --- | --- | --- | --- | --- | --- |
| COc1cccc(C(CN(C)C)NC(=O)c2cccc(-c3ccc4[nH]nc(C)c4c3)c2)c1 (centres unmarked) [Compound 36] | 73 | 10 | 50.9 | 1.33 | 5.05 | 10 | 0.156 | 36.4 |
| Cc1cccc(C(CN)NC(=O)c2cccc(-c3ccc4[nH]nc(C)c4c3)c2)c1 (centres unmarked) [Compound 35] | 317 | 13 | 25 | 3.83 | 6.78 | 21 | 0.734 | 117 |
| COc1cccc(C(CN)NC(=O)c2cc(-c3ccc4[nH]nc(C)c4c3)ccn2)c1 (centres unmarked) [Compound 40] | 57 | 4 | 23.4 | 3.58 | 6 | 21 | 0.758 | 117 |
| COc1cccc(C(NC(=O)c2cccc(-c3ccc4[nH]nc(C)c4c3)c2)C(C)(C)N)c1 (centres unmarked) [Compound 64] | 798 | 46 | 88.3 | 2.83 | 16.4 | 12 | 0.1 | 17 |
| Cc1n[nH]c2ccc(-c3cccc(C(=O)NC(CN)c4cccc(F)c4F)c3)cc12 (centres unmarked) [Compound 61] | 253 | 23 | 30.8 | 2.37 | 4.72 | 11 | 0.266 | 55.6 |
| COc1cccc(C(CO)NC(=O)c2cccc(-c3ccc4[nH]nc(F)c4c3)c2)c1 (centres unmarked) [Compound 26] | 113 | 16 | 14 | 2.5 | 1.72 | 51 | 3.04 | 752 |
| COc1cccc(C(CN)NC(=O)c2cc(-c3ccc4[nH]nc(C)c4c3)ccc2OC(F)(F)F)c1 (centres unmarked) [Compound 49] | 1200 | 31 | 23.1 | 4.82 | 8.31 | 60 | 1.33 | 157 |
| CNCC(NC(=O)c1cc(-c2ccc3[nH]nc(C)c3c2)ccn1)c1cccc(OC)c1 (centres unmarked) [Compound 66] | 193 | 11 | 50.8 | 2.74 | 10.5 | 20.9 | 0.306 | 50.7 |
| COc1cccc(C(CO)NC(=O)c2cccc(-c3ccc4[nH]nc(C)c4c3)c2)c1 (centres unmarked) [Compound 25] | 89 | 5 | 6.24 | 2.91 | 1.15 | 45 | 6.3 | 1180 |
| COc1cccc(C(CO)NC(=O)c2ccc(F)c(-c3ccc4[nH]ncc4c3)c2)c1 (centres unmarked) [Compound 11] | 79 | 5 | – | – | – | – | – | – |
| COc1cccc(C(CNC(C)C)NC(=O)c2cccc(-c3ccc4[nH]nc(C)c4c3)c2)c1 (centres unmarked) [Compound 38] | 75 | 14 | – | – | – | – | – | – |
| NCC(NC(=O)c1cccc(-c2ccc3[nH]nc(F)c3c2)c1)c1cccc(F)c1F (centres unmarked) [Compound 62] | 289 | 48 | – | – | – | – | – | – |
| O=C(NC(CO)c1cccc(F)c1F)c1cccc(-c2ccc3[nH]ncc3c2)c1 (centres unmarked) [Compound 19] | 735 | 35 | – | – | – | – | – | – |
| COc1cccc(C(CO)NC(=O)c2cccc(-c3ccc4[nH]ncc4c3)c2)c1 (centres unmarked) [Compound 5] | 33 | 6 | – | – | – | – | – | – |
| COc1cccc(C(CO)NC(=O)c2cccc(-c3ccc4[nH]nc(N)c4c3)c2)c1 (centres unmarked) [Compound 27] | 407 | 30 | – | – | – | – | – | – |
| COc1cccc(C(CNS(C)(=O)=O)NC(=O)c2cccc(-c3ccc4[nH]nc(C)c4c3)c2)c1 (centres unmarked) [Compound 72] | 587 | 12 | 55.7 | 0.62 | 1.79 | 11 | 0.148 | 99.4 |
| Cc1n[nH]c2ccc(-c3cccc(C(=O)NC(CN)c4cccc(Cl)c4)c3)cc12 (centres unmarked) [Compound 43] | 153 | 6 | – | – | – | – | – | – |
| O=C(NC(CCO)c1cccc(F)c1)c1cccc(-c2ccc3[nH]ncc3c2)c1 (centres unmarked) [Compound 6] | 63 | 7 | – | – | – | – | – | – |
| COc1cccc(C(CN)NC(=O)c2cc(-c3ccc4[nH]nc(C)c4c3)ccc2OC)c1 (centres unmarked) [Compound 50] | 56 | 5 | – | – | – | – | – | – |
| COc1cccc(C(CO)NC(=O)c2cc(F)cc(-c3ccc4[nH]ncc4c3)c2)c1 (centres unmarked) [Compound 12] | 257 | 12 | – | – | – | – | – | – |
| COc1cccc(C(CN)NC(=O)c2cc(CN3CCCC3)cc(-c3ccc4[nH]nc(C)c4c3)c2)c1 (centres unmarked) [Compound 39] | 429 | 15 | – | – | – | – | – | – |
| COCCC(NC(=O)c1cccc(-c2ccc3[nH]ncc3c2)c1)c1cccc(OC)c1 (centres unmarked) [Compound 31] | 223 | 20 | – | – | – | – | – | – |
